Test results reported in patent US12139520B2 (priority 2020, dated 2024).
Bridge positions count the residues as written; N and C are the ends. Square brackets hold non-standard residues; d marks the D form. Peptide text beside a SMILES is read from it. Hyp = O=C(O)[C@@H]1C[C@@H](O)CN1; Cit = NC(=O)NCCC[C@H](N)C(=O)O

Key:
[1] = Physical stability of peptide analogues (Thioflavin T fibrillation); type: physicochemical; details: maximum ThT signal normalized between hAMY maximum and buffer background; 40° C., shaking, four days; pH 7 per table title
Method in brief: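 Peptides in 50 mM sodium acetate pH 4 or 50 mM sodium phosphate pH 7 were preincubated 1 h, mixed with 4 μM ThT, held at 40° C with 700 rpm shaking before each read. Fluorescence (ex 450/em 480 nm) every 10 min for four days; LOESS-smoothed maximum signal normalized in percent between hAMY and buffer.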

[2] = biological target: hAM1 receptor (Homo sapiens, UniProt O60895+Q16602); assay: cAMP assay for in vitro receptor activation, hAM1-R; type: cell-based; details: cAMP assay, hAM1 receptor; read-out: hAM1R EC50
Method in brief: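 Receptor activation, read as cAMP, was assessed in thawed cells of a monoclonal hAM1-overexpressing stable line, plated at 8000 cells/well in DPBS supplemented with 0.05% casein and 0.5 mM IBMX.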

[3] = biological target: T1, hAMY3 receptor (Homo sapiens, UniProt O60896+P30988); assay: cAMP assay for in vitro receptor activation, hAMY3-R; type: cell-based; details: cAMP assay, hAMY3 receptor; read-out: hAMY3R EC50
T1 sequence (P30988 25-474): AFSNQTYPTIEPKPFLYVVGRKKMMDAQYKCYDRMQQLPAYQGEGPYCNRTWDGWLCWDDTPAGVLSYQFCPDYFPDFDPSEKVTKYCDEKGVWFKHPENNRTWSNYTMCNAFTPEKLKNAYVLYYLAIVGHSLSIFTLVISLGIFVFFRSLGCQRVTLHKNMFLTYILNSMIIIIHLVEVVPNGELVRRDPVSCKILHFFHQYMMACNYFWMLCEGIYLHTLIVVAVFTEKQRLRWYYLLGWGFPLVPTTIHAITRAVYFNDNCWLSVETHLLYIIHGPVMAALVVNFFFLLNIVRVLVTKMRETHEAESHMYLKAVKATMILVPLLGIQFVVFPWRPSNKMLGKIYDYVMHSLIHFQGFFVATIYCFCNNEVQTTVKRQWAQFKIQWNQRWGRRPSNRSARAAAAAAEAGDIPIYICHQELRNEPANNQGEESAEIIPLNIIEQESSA
T1 sequence (O60896 24-148 partner): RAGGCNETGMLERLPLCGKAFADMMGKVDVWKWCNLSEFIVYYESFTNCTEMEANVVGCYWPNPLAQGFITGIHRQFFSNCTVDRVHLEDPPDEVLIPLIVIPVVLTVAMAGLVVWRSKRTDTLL
Method in brief: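 Receptor activation was measured as cAMP accumulation in a monoclonal cell line stably overexpressing hAMY3. Stimulation with graded doses lasted 30 min at room temperature in the presence of 0.5 mM IBMX, with human amylin as positive control.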

hAM1 receptor, sequence (Q16602 23-461): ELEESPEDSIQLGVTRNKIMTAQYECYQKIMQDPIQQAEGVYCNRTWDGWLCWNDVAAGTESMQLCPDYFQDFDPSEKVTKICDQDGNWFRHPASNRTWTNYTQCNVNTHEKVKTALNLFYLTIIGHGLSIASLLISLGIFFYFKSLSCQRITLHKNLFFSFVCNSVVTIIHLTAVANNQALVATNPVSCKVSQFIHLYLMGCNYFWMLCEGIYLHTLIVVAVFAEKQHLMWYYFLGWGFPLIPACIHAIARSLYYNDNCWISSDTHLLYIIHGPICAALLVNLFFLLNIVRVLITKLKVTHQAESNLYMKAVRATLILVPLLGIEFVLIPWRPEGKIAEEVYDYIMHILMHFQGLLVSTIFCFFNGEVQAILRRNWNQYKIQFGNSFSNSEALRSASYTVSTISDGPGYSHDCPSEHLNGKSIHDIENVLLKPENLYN
hAM1 receptor, sequence (O60895 43-175 partner): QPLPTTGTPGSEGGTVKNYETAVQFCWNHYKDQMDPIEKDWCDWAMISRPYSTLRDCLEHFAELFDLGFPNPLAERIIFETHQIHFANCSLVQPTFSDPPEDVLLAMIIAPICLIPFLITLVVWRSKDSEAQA

SMILES	Max ThT signal (%) [1] [%]	EC50 [2] [nM]	EC50 [3] [nM]
CC[C@H](C)[C@H](NC(=O)[C@H](CCC(N)=O)NC(=O)[C@H](Cc1c[nH]cn1)NC(=O)[C@H](C)NC(=O)[C@H](CC(C)C)NC(=O)[C@H](CCCNC(=N)N)NC(=O)[C@H](CCC(N)=O)NC(=O)[C@@H](NC(=O)[C@@H](NC(=O)[C@@H]1CSSC[C@H](NC(=O)CN)C(=O)N[C@@H](CCCNC(=N)N)C(=O)N[C@@H]([C@@H](C)O)C(=O)NCC(=O)N[C@@H]([C@@H](C)O)C(=O)N1)[C@@H](C)O)C(C)C)C(=O)N[C@@H](Cc1ccc(O)cc1)C(=O)N[C@@H](CCC(N)=O)C(=O)N[C@@H](Cc1ccccc1)C(=O)N[C@H](C(=O)N[C@@H](CC(N)=O)C(=O)N[C@@H](CCCCN)C(=O)N[C@@H](CC(=O)O)C(=O)N[C@@H](CCCCN)C(=O)N[C@@H](CC(=O)O)C(=O)N[C@@H](CC(N)=O)C(=O)N[C@H](C(=O)N[C@@H](C)C(=O)N1CCC[C@H]1C(=O)N[C@@H](CCCNC(=N)N)C(=O)N[C@@H](CO)C(=O)N[C@@H](CCCCN)C(=O)N[C@H](C(=O)N[C@@H](CO)C(=O)N1CCC[C@H]1C(=O)N[C@@H](CCC(N)=O)C(=O)N[C@H](C(=O)N[C@@H](Cc1c[nH]c2ccccc12)C(N)=O)[C@@H](C)O)[C@@H](C)CC)C(C)C)[C@@H](C)O [compound 226] (H-GCRTGTCTVQRLAHQIYQFTNKDKDNVAPRSKISPQTW-NH2; disulfide 2-7; N-terminus assumed)	27.000	> 5000	0.186
CC[C@H](C)[C@H](NC(=O)[C@H](CCC(N)=O)NC(=O)[C@H](CCC(=O)O)NC(=O)[C@H](C)NC(=O)[C@H](CC(C)C)NC(=O)[C@H](CCCNC(=N)N)NC(=O)[C@H](C)NC(=O)[C@@H](NC(=O)[C@@H](NC(=O)[C@@H]1CSSC[C@H](NC(=O)[C@@H](N)CCCNC(=N)N)C(=O)N[C@@H](CCC(N)=O)C(=O)N[C@@H]([C@@H](C)O)C(=O)N[C@@H](CO)C(=O)N[C@@H]([C@@H](C)O)C(=O)N1)[C@@H](C)O)C(C)C)C(=O)N[C@@H](C)C(=O)N[C@@H](CCC(N)=O)C(=O)N[C@@H](Cc1ccc(O)cc1)C(=O)N[C@H](C(=O)N[C@@H](CC(=O)O)C(=O)N[C@@H](CCCCN)C(=O)N[C@@H](CC(=O)O)C(=O)N[C@@H](CCCCN)C(=O)N[C@@H](CC(=O)O)C(=O)N[C@@H](CCC(N)=O)C(=O)N[C@H](C(=O)N[C@@H](C)C(=O)N1CCC[C@H]1C(=O)N1CCC[C@H]1C(=O)N[C@H](C(=O)N[C@@H](CC(N)=O)C(=O)N[C@H](C(=O)NCC(=O)N[C@@H](CO)C(=O)N[C@@H](CC(N)=O)C(=O)N[C@@H](CO)C(=O)N1C[C@H](O)C[C@H]1C(N)=O)C(C)C)[C@@H](C)O)C(C)C)[C@@H](C)O [compound 32] (H-RCQTSTCTVARLAEQIAQYTDKDKDQVAPPTNVGSNS[Hyp]-NH2; disulfide 2-7; N-terminus assumed)	5.300	> 5000	0.008
CC[C@H](C)[C@H](NC(=O)[C@H](CCC(N)=O)NC(=O)[C@H](Cc1c[nH]cn1)NC(=O)[C@H](C)NC(=O)[C@H](CC(C)C)NC(=O)[C@H](CCCNC(=N)N)NC(=O)[C@H](CCC(N)=O)NC(=O)[C@@H](NC(=O)[C@@H](NC(=O)[C@@H]1CSSC[C@H](NC(=O)[C@@H](N)CCCCN)C(=O)N[C@@H](CC(N)=O)C(=O)N[C@@H]([C@@H](C)O)C(=O)N[C@@H](C)C(=O)N[C@@H]([C@@H](C)O)C(=O)N1)[C@@H](C)O)C(C)C)C(=O)N[C@@H](Cc1ccc(O)cc1)C(=O)N[C@@H](CCC(N)=O)C(=O)N[C@@H](Cc1ccccc1)C(=O)N[C@@H](C)C(=O)N[C@@H](CC(=O)O)C(=O)N[C@@H](CCCCN)C(=O)N[C@@H](CC(=O)O)C(=O)N[C@@H](CCCCN)C(=O)N[C@@H](CC(=O)O)C(=O)N[C@@H](CC(N)=O)C(=O)N[C@H](C(=O)N[C@@H](C)C(=O)N1CCC[C@H]1C(=O)N1CCC[C@H]1C(=O)N[C@H](C(=O)N[C@@H](CC(N)=O)C(=O)N[C@H](C(=O)NCC(=O)N[C@@H](CO)C(=O)N[C@@H](CC(N)=O)C(=O)NCC(=O)N1C[C@H](O)C[C@H]1C(N)=O)C(C)C)[C@@H](C)O)C(C)C [compound 23] (H-KCNTATCTVQRLAHQIYQFADKDKDNVAPPTNVGSNG[Hyp]-NH2; disulfide 2-7)	4.200	> 5000	0.008

The next lines start with the values.

Max ThT signal (%) [1] [%]	EC50 [2] [nM]	EC50 [3] [nM]	SMILES
2.750	> 5000	0.041	CC[C@H](C)[C@H](NC(=O)[C@H](CC(N)=O)NC(=O)[C@@H](NC(=O)[C@H](CCCNC(=N)N)NC(=O)[C@@H]1CCCN1C(=O)[C@H](C)NC(=O)[C@@H](NC(=O)[C@H](CC(N)=O)NC(=O)[C@H](CC(=O)O)NC(=O)[C@H](CCCCN)NC(=O)[C@H](CC(=O)O)NC(=O)[C@H](CCCCN)NC(=O)[C@H](CC(=O)O)NC(=O)[C@@H](NC(=O)[C@H](Cc1ccccc1)NC(=O)[C@H](CCC(N)=O)NC(=O)[C@H](Cc1ccc(O)cc1)NC(=O)[C@@H](NC(=O)[C@H](CCC(N)=O)NC(=O)[C@H](Cc1c[nH]cn1)NC(=O)[C@H](C)NC(=O)[C@H](CC(C)C)NC(=O)[C@H](Cc1c[nH]c2ccccc12)NC(=O)[C@H](CCC(N)=O)NC(=O)[C@@H](NC(=O)[C@@H](NC(=O)[C@@H]1CSSC[C@H](NC(=O)CN)C(=O)N[C@@H](CCCNC(=N)N)C(=O)N[C@@H]([C@@H](C)O)C(=O)NCC(=O)N[C@@H]([C@@H](C)O)C(=O)N1)[C@@H](C)O)C(C)C)[C@@H](C)CC)[C@@H](C)O)C(C)C)[C@@H](C)O)C(=O)NCC(=O)N1CCC[C@H]1C(=O)N[C@@H](CC(N)=O)C(=O)NCC(=O)N[C@@H](Cc1ccc(O)cc1)C(N)=O [compound 348] (H-GCRTGTCTVQWLAHQIYQFTDKDKDNVAPRTNIGPNGY-NH2; disulfide 2-7; N-terminus assumed)
8.950	> 5000	0.056	CC[C@H](C)[C@H](NC(=O)[C@H](CCC(N)=O)NC(=O)[C@H](Cc1c[nH]cn1)NC(=O)[C@H](C)NC(=O)[C@H](CC(C)C)NC(=O)[C@H](CCCNC(N)=O)NC(=O)[C@H](CCC(N)=O)NC(=O)[C@@H](NC(=O)[C@@H](NC(=O)[C@@H]1CSSC[C@H](NC(=O)[C@@H](N)CCCCN)C(=O)N[C@@H](CC(N)=O)C(=O)N[C@@H]([C@@H](C)O)C(=O)N[C@@H](C)C(=O)N[C@@H]([C@@H](C)O)C(=O)N1)[C@@H](C)O)C(C)C)C(=O)N[C@@H](Cc1ccc(O)cc1)C(=O)N[C@@H](CCC(N)=O)C(=O)N[C@@H](C)C(=O)N[C@H](C(=O)N[C@@H](CC(=O)O)C(=O)N[C@@H](CCCCN)C(=O)N[C@@H](CC(=O)O)C(=O)N[C@@H](CCCCN)C(=O)N[C@@H](CC(=O)O)C(=O)N[C@@H](CC(N)=O)C(=O)N[C@H](C(=O)N[C@@H](C)C(=O)N1CCC[C@H]1C(=O)N1CCC[C@H]1C(=O)N[C@H](C(=O)N[C@@H](CC(N)=O)C(=O)N[C@H](C(=O)NCC(=O)N[C@@H](CO)C(=O)N[C@@H](CC(N)=O)C(=O)NCC(=O)N1C[C@H](O)C[C@H]1C(N)=O)C(C)C)[C@@H](C)O)C(C)C)[C@@H](C)O [compound 276] (H-KCNTATCTVQ[Cit]LAHQIYQATDKDKDNVAPPTNVGSNG[Hyp]-NH2; disulfide 2-7; N-terminus assumed)
1.200	> 5000	0.085	CC[C@H](C)[C@H](NC(=O)[C@H](CCC(N)=O)NC(=O)[C@H](Cc1c[nH]cn1)NC(=O)[C@H](C)NC(=O)[C@H](CC(C)C)NC(=O)[C@H](Cc1c[nH]c2ccccc12)NC(=O)[C@H](CCC(N)=O)NC(=O)[C@@H](NC(=O)[C@@H](NC(=O)[C@@H]1CSSC[C@H](NC(=O)CN)C(=O)N[C@@H](CCCNC(=N)N)C(=O)N[C@@H]([C@@H](C)O)C(=O)NCC(=O)N[C@@H]([C@@H](C)O)C(=O)N1)[C@@H](C)O)C(C)C)C(=O)N[C@@H](Cc1ccc(O)cc1)C(=O)N[C@@H](CCC(N)=O)C(=O)N[C@@H](Cc1ccccc1)C(=O)N[C@H](C(=O)N[C@@H](CC(=O)O)C(=O)N[C@@H](CCCCN)C(=O)N[C@@H](CC(=O)O)C(=O)N[C@@H](CCCCN)C(=O)N[C@@H](CC(=O)O)C(=O)N[C@@H](CC(N)=O)C(=O)N[C@H](C(=O)N[C@@H](C)C(=O)N1CCC[C@H]1C(=O)N[C@@H](CCCNC(=N)N)C(=O)N[C@@H](CO)C(=O)N[C@@H](CC(N)=O)C(=O)N[C@H](C(=O)NCC(=O)N1CCC[C@H]1C(=O)N[C@@H](CCC(N)=O)C(=O)NCC(=O)N[C@@H](Cc1ccc(O)cc1)C(N)=O)C(C)C)C(C)C)[C@@H](C)O [compound 346] (H-GCRTGTCTVQWLAHQIYQFTDKDKDNVAPRSNVGPQGY-NH2; disulfide 2-7; N-terminus assumed)
